# Experimental data as given in patent US20040175419A1, “Control of compactibility through cystallization” (priority 2001, published 2004).
# Tests used:
# Assay type in all cases: physicochemical
# [1] = Compactability (slope of tensile strength versus compression pressure) of 80% API powder blend compressed on an Instron; conditions: for compactability of the powder blend: 80% bulk drug and 20% excipient
# Description: In order to evaluate the compressibility and compactability of all API lots generated by modifying the crystallization process, a blend of 80% API, 19.5% microcrystalline cellulose and 0.5% magnesium stearate was prepared by mixing in a tumble mixer for 5 minutes. Each mixture was then compressed on an Instron (Universal Stress-Strain Analyzer) using a 0.5 inch diameter tooling (upper and lower punches and die) at a speed of 100 mm/min at compression forces of 5, 10, 15, 20 and 25 kN each for a replicate of three tablets. The tablet dimensions were measured using a digital Vernier calliper and the strength of the tablets were determined using an Erweka hardness tester. The volume of the tablet can be calculated from the tablet dimensions normalized for the true density of the mixture being compressed. The compressibility curves are generated by plotting the solid fraction of the tablet generated at each compression pressure versus the respective compression pressure. The area under such a curve represents the extent of volume reduction. The force required to break the tablets is normalized for the area of the tablet to obtain the tensile strength value. Slopes for profiles of tensile strength versus the compression pressure represent the compactability of the material while the area under the curve of tensile strength versus the solid fraction of the tablets represents the extent of compaction or toughness of the material.
# [2] = Bonding Index calculated from tensile strength and dynamic indentation hardness
# Description: The Bonding Index of the material can be calculated from the tensile strength measurements as well as the dynamic indentation hardness measurements described above using the equation shown below: [formula]
# The highest bonding index value observed today is that of microcrystalline cellulose Avicel PH 101 which is 0.04. The bonding index of Lot # 2 was 0.034±0.001.
# [3] = Agglomerate size of API crystallized at different supersaturation
# Description: The crystallization parameters and seeding conditions (using “as is” API at 0.1-0.2%) described in the procedure outlined in Table 1 was adopted as a starting point for modifications. By changing the ratio of solvent/antisolvent (isopropyl acetate/heptane) in step 3 (Table 1) from 1.67 to 1.0 and varying the pot temperature from 80 to 50° C., the degree of supersaturation was increased by a factor of 5 (from about 3.5 to about 17.5). The materials made from these conditions are generally agglomerates formed by a cluster of primary crystals plus the conjunction material which glue these crystals together.
# At low supersaturation, large agglomerates (500-1000 μm) with large primary crystals (also large) were obtained. At high supersaturation the procedure generates small agglomerates (200-300 μm) with smaller primary crystals. This is consistent with other crystallization systems, in which nucleation is rate limiting, where high supersaturation favors the formation of agglomerates and mild supersaturation results in elementary crystals. Generally, these agglomerated materials compact quite poorly and create difficulties for large scale, high speed tablet manufacture. […] The manipulation of supersaturation was consequently not pursued further. […]
# [4] = Crystallinity by X-ray diffraction after milling; conditions: milled API, FIG. 4
# Description: This amorphization through the milling process can lead to chemical instability of the API. […] This clearly illustrated that modification of the crystallization process parameters to achieve higher compactability of the API is the preferred choice.
# [5] = Solid-state stability of crystal forms; conditions: compared with forms 5, 6, 7
# Description: Due to the unique structure of the API material at least four different groups of crystal structures were observed (forms 4, 5, 6, 7) and analyzed by single crystal x-ray. […] Orthorhombic Form 6 consisted of a group of isostructural (1:1) solvates which accommodates solvents such as EtOAc, acetone and MEK. […] An exhaustive study of API crystallization on the feasibility of various solvents, control of polymorphs, and robustness of process concluded that the selected form could be consistently produced and kept stable in iPrOAc (or BuOAc)/Heptane (or Cyclohexane), following which a reproducible crystallization procedure in the iPrOAc/heptane solvent system was developed and implemented. This procedure, associated with the aminolysis of penultimate compound (Chemical Abstracts Systematic Name, (αS)-α-(Benzoylthio)-3,4,4-trimethyl-2,5-dioxo-1-imidazolidinebutanoyl-L-leucyl-N,3-dimethyl-L-valinamide), is successful in purging undesirable side products/impurities such as α,α′-Dithiobis[N-[1-[[[2,2-dimethyl-1-[(methylamino)carbonyl]propyl]amino]-carbonyl]-3-methylbutyl]-3,4,4-trimethyl-2,5-dioxo-1-imidazolidinebutanamide] which is the S,S′-dimer of the API. The crystallization procedure is further described in Table 1.
# [6] = Tensile strength of square compacts from tri-axial decompression press (Hiestand tablet indices); conditions: square compacts prepared at a solid fraction of 0.85
# Description: In order to characterize the deformation mechanism of the API, Hiestand's tablet indices (see, E. N. Hiestand and D. P. Smith, Powder Technology, 38, pp 145-159 (1984) hereby incorporated by reference) were evaluated. The identical procedure as developed by E. N. Hiestand, at the Pharmacia and Upjohn company was adapted for evaluating the deformation properties of the API. In brief, square shaped compacts (1.97 cm^2) were prepared using a tri-axial decompression Loomis Engineering press. This tri-axial press facilitates compression pressure relief in three dimensions as opposed to […] as in the uni-axial press. […] Through tri-axial decompression it is possible to produce virtually flawless compacts. The API was compressed with the procedure describe above to produce compacts having a relative density or solid fraction of 0.85. The compacts were then subjected to tensile strength testing on an Instron stress-strain analyzer at a cross head speed of about 0.8 mm/min. This speed allowed the time constant between the peak stress and 1/e times the peak stress to be a constant of 10 seconds. […]
# where, σ is the tensile strength calculated and F is the force required to initiate crack propagation in the compact and l and b are the length and breadth of the compact, respectively. […]
# [7] = Dynamic indentation hardness by pendulum impact apparatus; conditions: square compacts without a hole
# Description: The square compacts (without a hole) are then subjected to a dynamic indentation hardness evaluation using a pendulum impact apparatus as described in Tablet Indices^11. The velocity at which the pendulum sphere impacts the compact as well as the speed with which the pendulum sphere is rebound from the compact is recorded. The indentation made on the compact surface by the procedure described above is measured with a surface analyzer that facilitates computation of the chordal radius of the indentation. These measurements are then used to calculate the dynamic indentation hardness of the material using the equation described below: [formula]
# where, m and r are the mass and radius of the indenting sphere, respectively and hi and hr are the inbound and rebound heights, respectively and a is the chordal radius of the indentation created on the compact surface. G is acceleration due to gravity. […] This value is much lower than that of the standard compressible filler, Avicel PH 102 that has a hardness of 352 MN/m^2. […] The hardness value for Lot # 2 was 52.9 MN/M^2±8.2 MN/M^2. The increase in hardness of the material from the optimized crystallization process is not significant enough to change the conclusion drawn earlier about its ductility.
# [8] = Brittle fracture index (BFI) from compacts with and without a 1 mm hole; conditions: square compacts; scale 0 to 1
# Description: Similarly, the tensile strength is determined for square compacts that are prepared with a magnified flaw using the tri-axial decompression press and a upper punch having a 1 mm diameter pin spring loaded on its surface. This pin facilitates the introduction of a 1 mm diameter hole in the center of the compact. The tensile strength values of the compacts with and without a hole are used to evaluate the brittle fracture index (BFI) of the material as shown below: [formula]
# Where, σT is the tensile strength of the square compacts without a hole in the center and σTo is the tensile strength of the square compacts with a 1 mm hole in the center that acts as a stress concentrator.
smiles,measurement,setting,value
"CNC(=O)[C@@H](NC(=O)[C@H](CC(C)C)NC(=O)[C@@H](S)CCN1C(=O)N(C)C(C)(C)C1=O)C(C)(C)C [API, N-[(2S)-2-Mercapto-1-oxo-4-(3,4,4-trimethyl-2,5-dioxo-1-imidazolidinyl)butyl]-L-leucyl-N,3-dimethyl-L-valinamide]",compactability,"[1]; 1% ground seeds, with sonication",12.3 kPa/MPa
same,product compactability,"[1]; 50-g sample, 1% AirJet-milled seeds",4.2 kPa/MPa
same,product compactability,"[1]; 50-g sample, 1% ball-milled seeds",5.9 Kpa/MPa
same,product compactability,"[1]; 50-g sample, 1% ground seeds, without sonication",10.5 kPa/MPa
same,product compactability,"[1]; 50-g sample, 1% seeds crystallized from a ground seeded batch",5.3 kPa/MPa
same,compactability,"[1]; 50-g sample, 1.5% ball-milled seeds",7.0 kPa/MPa
same,compactability,"[1]; 50-g sample, 4% ground seeds",14.4 kPa/MPa
same,improvement in compactability over material generated by the current process,"[1]; 50-g sample, 4% ground seeds",~10 fold
same,compactability,"[1]; 50-g sample, 5% ground seeds",12.6 kPa/MPa
same,powder blend compactability,"[1]; 50 g scale, crystallization seeded with 5% large agglomerates",3.65 kPa/MPa
same,compactability of the powder blend,"[1]; 100 Kg scale, ""as is"" material at 1.5% seed loading",2.8-3.4 kPa/Mpa
same,compactability of the powder blend,"[1]; ""as is"" seed, 0.1% seed loading (representative)",1.4-1.7 kPa/Mpa
same,change of compactability after milling,"[1]; milled API, FIG. 3",gain in compactability
same,bonding index,[2],0.025±0.001
same,agglomerate size,[3]; high supersaturation,200-300 μm
same,agglomerate size,[3]; low supersaturation,500-1000 μm
same,change of crystallinity after milling (X-ray diffraction patterns),[4],reduction in the crystallinity
"CNC(=O)[C@@H](NC(=O)[C@H](CC(C)C)NC(=O)[C@@H](S)CCN1C(=O)N(C)C(C)(C)C1=O)C(C)(C)C [Form 4, N-[(2S)-2-Mercapto-1-oxo-4-(3,4,4-trimethyl-2,5-dioxo-1-imidazolidinyl)butyl]-L-leucyl-N,3-dimethyl-L-valinamide]",stability of crystal structure in the solid state,[5],did not transform/decompose to other crystalline structures in the solid state
"CNC(=O)[C@@H](NC(=O)[C@H](CC(C)C)NC(=O)[C@@H](S)CCN1C(=O)N(C)C(C)(C)C1=O)C(C)(C)C [Lot# 1, N-[(2S)-2-Mercapto-1-oxo-4-(3,4,4-trimethyl-2,5-dioxo-1-imidazolidinyl)butyl]-L-leucyl-N,3-dimethyl-L-valinamide]",tensile strength,[6]; listed as MMPI Lot# 1,90.46 N/cm^2
same,dynamic indentation hardness,[7],35.8 MN/m^2
same,brittle fracture index (BFI),[8],0.14±0.03
"CNC(=O)[C@@H](NC(=O)[C@H](CC(C)C)NC(=O)[C@@H](S)CCN1C(=O)N(C)C(C)(C)C1=O)C(C)(C)C [Lot# 2, N-[(2S)-2-Mercapto-1-oxo-4-(3,4,4-trimethyl-2,5-dioxo-1-imidazolidinyl)butyl]-L-leucyl-N,3-dimethyl-L-valinamide]",tensile strength,[6],181.90 N/cm^2
same,bonding index,[2],0.034±0.001
same,dynamic indentation hardness,[7],52.9 MN/m^2
same,brittle fracture index (BFI),[8],0.20±0.02
